Each structure is given as a SMILES string.

What all share (assay type): biochemical
In experiment [1] the target is T1, HCV protease (Hepatitis C virus genotype 1a, UniProt P27958).
T1 construct: HCV protease was used in a similar fluorogenic assay
The note with it: Chip; 25 mM TRIS/HCL, pH 8.5, 0.1% Triton X-100, 10 mM DTT, 1M NDSB-195.
Method: The product fluorescence is proportional to the amount of cleaved substrate. The height of the product signal is proportional to the rate of enzyme turnover for that substrate concentration. The rate of fluorescence generation can be assessed as the fluorescence signal per mixing time of substrate and enzyme in the reaction channel. That mixing time is determined by the mean residence time of the fluorescent product in the reaction channel as it is electrokinetically pumped from the source of the mixing to the detector. Km was determined from the Michaelis Menton equation.
Due to the chemistry of this FRET quenching reaction, several considerations for accurate measurement of Km on the Labchip™ exist. (1.) There is not an accurate calibration curve for the EDANS labeled product. (2) Accurate determination of the substrate concentration in the Labchip™ reagent well by a simple spectrophotometric measurement is not performed. […]
Note however that this well controlled background fluorescence is not the substrate only background. The extent of substrate hydrolysis over time could not be measured in the continuous flow analysis where enzyme was pumped throughout the course of the experiments. […]
The average percent inhibition response was calculated for the first three inhibited and uninhibited signals at the start of each hour.

In experiment [2] the target is T2, LAR phosphatase (Homo sapiens, UniProt P10586). The experiment is described as follows: Continuous flow LAR phosphatase assay with fluorogenic substrate dFMUP on a 7A microchip. The source says:
In many cases, the biochemical system that is being assayed can be selected or engineered to have an easily detectable result. For example, assaying enzyme function is typically made simple by utilizing fluorogenic substrates for the enzyme, e.g., non-fluorescent substrates which yield fluorescent products. Such assays are readily incorporated into microfluidic devices for performance of assays to identify compounds that may effect normal enzyme activity. In one embodiment, using a 7A chip as described supra (see, e.g., FIG. 7), one continuously flows enzyme and fluorogenic substrate through a channel of the device. This continuous flow of enzyme and substrate produces a steady state fluorescent signal from the fluorescent product. Enzyme inhibitor (or, e.g., compounds for which one wishes to test inhibitory activity) are periodically introduced into the main channel. These inhibitors then reduce the amount of product produced within the main channel resulting in a deviation from the steady state signal. Specifically, both phosphatase assays and protease assays were performed using a 7A chip.
The phosphatase assay utilizes a fluorogenic substrate dFMU, which produces a fluorescent signal upon dephosphorylation. The reaction is shown schematically in FIG. 12. […] In this experiment, the running buffer was 1 M NDSB-195 in 25 mM HEPES, pH 7.9. Reagent concentrations were 125 nM LAR, 50 μM dFMUP and 200 μM peptide inhibitor in wells 6, 8 and 2 respectively. Each reagent well was paired with a well containing running buffer. The system was programmed to repeatedly run a sixteen-step loop of experiments. The sixteen steps were a series of controls followed by the enzyme plus substrate experiment. Each step of the loop conserved the total current flux in the main reaction channel. The total flux remained constant during each step of the loop by maintaining a constant sum of currents from the wells. The proportion of that overall flux from each reagent and buffer well was selected to provide the desired final reagent concentration in the main reaction channel. The fluorescence response was monitored in each of the sixteen experimental steps where the continuous flow stream alternated between buffer, substrate, buffer, substrate plus enzyme at four different substrate concentrations. An example of a controller program is shown below, Table 2.
The substrate concentration was varied for each sequence of three controls followed by the enzyme reaction. The concentrations of the reagents in the main channel can be calculated from the ratio of currents used to pump the reagents. The concentrations in the reaction channel are simply the concentration in the well multiplied by the ratio of current applied at that well, divided by the total current. Here the reaction mixture was […], and either 5, 12.5, 17 or 25 μM dFMUP. The raw fluorescence data is plotted as a function of time. […] Rise times for the enzyme/substrate signal are less than 5 seconds. The background signal remained low over the course of many experimental cycles.
The raw data for the Km, Vmax, kcat and Ki determinations are plotted in FIG. 14. Each trace represents a set of experiments performed in seven step cycles. The enzyme solution was pumped continuously, providing a final concentration of 83 nM LAR in 1 M NDSB-195, 50 mM HEPES, pH 7.5 in the reaction channel, while the signal at various substrate concentrations was recorded. The first step of the cycle is an enzyme only control. Steps two through six contain different levels of substrate up to an including 17 μM dFMUP. The final step of the cycle is a substrate only control, 17 μM dFMUP with no enzyme. The entire experiment, (no peptide inhibitor), was repeated at two inhibitor concentrations, 35 uM and 69 uM peptide. […]

Experiment [3] addresses T2, LAR phosphatase. The experiment is described as follows: LAR phosphatase/dFMUP assay in a cuvette on the spectrophotometer. The conditions noted are these: 1M NDSB-195/50 mM Hepes, pH 7.5, 0.1 mg/ml BSA. Here is the method: A least squares fit of the three straight lines: no inhibitor, 35 μM and 69 μM peptide, was performed with the constraint that they meet at a common intercept on the y axis, 1/Vmax FIG. 15. […] The kcat is 4.74 μmol/min nmol LAR. The parallel analysis performed on the spectrophotometer in the same running buffer yielded a kcat of 6 μmol/min nmol LAR. […] The same analysis performed in a cuvette experiment with 1 mg/ml BSA in the running buffer gave 167 μM peptide.
In addition to the above kinetic studies, rate as a function of substrate concentration data was collected on three separate chips in order to consider interchip reproducibility for Km analyses. The combined data were used to prepare a double reciprocal plot. […] This is in excellent agreement with cuvette experiments performed on the spectrophotometer where dFMU was detected at 360 nm in a temperature controlled cuvette at 25° C.

Setting [4] is: chip, 50 mM HEPES, pH 7.5, 10 mM DTT, 0.5 M NDSB-195.

T2 sequence (P10586 30-1907): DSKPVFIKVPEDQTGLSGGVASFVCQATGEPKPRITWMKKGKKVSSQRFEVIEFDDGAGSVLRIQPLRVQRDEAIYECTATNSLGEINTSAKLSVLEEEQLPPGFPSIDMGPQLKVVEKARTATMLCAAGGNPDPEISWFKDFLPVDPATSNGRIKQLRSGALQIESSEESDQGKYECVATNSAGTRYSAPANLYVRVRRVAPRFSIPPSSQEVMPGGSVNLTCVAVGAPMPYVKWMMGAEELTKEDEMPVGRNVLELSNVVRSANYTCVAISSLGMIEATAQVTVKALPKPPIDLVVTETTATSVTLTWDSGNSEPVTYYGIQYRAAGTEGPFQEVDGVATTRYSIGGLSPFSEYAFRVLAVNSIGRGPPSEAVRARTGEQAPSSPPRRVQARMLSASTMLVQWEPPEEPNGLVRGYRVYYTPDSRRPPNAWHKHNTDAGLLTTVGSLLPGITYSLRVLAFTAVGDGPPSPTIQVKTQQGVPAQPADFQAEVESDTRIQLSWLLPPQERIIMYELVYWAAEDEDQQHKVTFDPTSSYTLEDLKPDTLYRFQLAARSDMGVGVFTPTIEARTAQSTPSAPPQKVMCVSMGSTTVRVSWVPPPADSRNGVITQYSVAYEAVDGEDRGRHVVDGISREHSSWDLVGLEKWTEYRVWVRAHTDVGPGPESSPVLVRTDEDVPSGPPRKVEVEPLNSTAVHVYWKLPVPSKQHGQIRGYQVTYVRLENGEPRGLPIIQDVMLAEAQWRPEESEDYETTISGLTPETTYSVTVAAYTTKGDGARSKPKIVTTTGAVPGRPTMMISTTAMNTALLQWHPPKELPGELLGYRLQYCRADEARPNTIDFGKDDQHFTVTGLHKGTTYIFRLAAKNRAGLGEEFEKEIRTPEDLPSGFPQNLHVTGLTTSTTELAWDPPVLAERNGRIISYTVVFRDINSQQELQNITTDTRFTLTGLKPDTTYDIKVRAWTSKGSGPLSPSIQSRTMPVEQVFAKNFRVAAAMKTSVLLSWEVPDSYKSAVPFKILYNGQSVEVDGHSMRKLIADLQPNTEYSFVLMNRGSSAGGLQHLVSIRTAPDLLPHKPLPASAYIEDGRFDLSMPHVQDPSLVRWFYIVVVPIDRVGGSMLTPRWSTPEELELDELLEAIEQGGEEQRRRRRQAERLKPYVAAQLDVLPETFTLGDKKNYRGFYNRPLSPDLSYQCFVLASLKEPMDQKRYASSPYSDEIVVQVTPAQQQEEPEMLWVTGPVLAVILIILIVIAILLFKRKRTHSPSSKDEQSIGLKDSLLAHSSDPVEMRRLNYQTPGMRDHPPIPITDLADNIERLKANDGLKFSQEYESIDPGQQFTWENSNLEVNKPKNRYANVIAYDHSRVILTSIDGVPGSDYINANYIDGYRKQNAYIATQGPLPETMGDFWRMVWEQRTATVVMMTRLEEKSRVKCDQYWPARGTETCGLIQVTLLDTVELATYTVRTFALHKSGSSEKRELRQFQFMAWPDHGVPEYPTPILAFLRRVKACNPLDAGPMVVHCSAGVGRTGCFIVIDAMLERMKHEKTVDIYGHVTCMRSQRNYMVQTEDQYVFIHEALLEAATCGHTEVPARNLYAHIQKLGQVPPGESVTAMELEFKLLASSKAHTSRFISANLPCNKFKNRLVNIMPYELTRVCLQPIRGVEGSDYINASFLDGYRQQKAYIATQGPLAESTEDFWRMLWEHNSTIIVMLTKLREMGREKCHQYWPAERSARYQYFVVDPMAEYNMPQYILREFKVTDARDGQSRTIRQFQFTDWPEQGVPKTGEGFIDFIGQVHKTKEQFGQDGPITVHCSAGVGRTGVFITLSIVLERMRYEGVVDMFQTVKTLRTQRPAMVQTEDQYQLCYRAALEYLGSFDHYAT
T1 sequence (P27958 1027-1208): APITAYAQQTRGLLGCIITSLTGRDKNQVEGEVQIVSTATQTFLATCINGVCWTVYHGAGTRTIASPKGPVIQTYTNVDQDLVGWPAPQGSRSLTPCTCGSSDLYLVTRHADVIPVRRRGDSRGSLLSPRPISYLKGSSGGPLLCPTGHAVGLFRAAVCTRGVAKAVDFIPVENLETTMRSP

For `C/C=C1\NC(=O)[C@H]2CSSCC/C=C/[C@H](CC(=O)N[C@H](C(C)C)C(=O)N2)OC(=O)[C@H](C(C)C)NC1=O` [Depsipeptide], the Km in experiment [1] was found to be 110 µM.
With `Cc1cc(=O)oc2c(F)c(OP(=O)(O)O)c(F)cc12` [dFMUP], the kcat is 4.74 μmol/min nmolLAR in experiment [2] (Chip, 1M NDSB-195/50 mM Hepes, pH 7.5, 83 nM LAR); 3000 to 5000 min⁻¹ in experiment [2] (setting [4]); 6 μmol/min nmolLAR in experiment [3] (Cuvette (spectrophotometer)). Besides, the Km was 18.7 µM in experiment [2] (Chip, 1M NDSB-195/50 mM Hepes, pH 7.5, average of three chips, read-out: Km LAR/dFMUP); 18.2 µM in experiment [2] (Chip, combined data of three separate chips, double reciprocal plot, read-out: Km); 20 to 400 µM in experiment [2] (chip, 50 mM HEPES, pH 7.5, 10 mM DTT, 0.5 M NDSB-195, read-out: Km); 23.2 µM in experiment [3] (Cuvette, 25° C, average of four determinations). Further, the Vmax in experiment [2] (Chip, least squares fit of Lineweaver-Burke lines, 83 nM LAR) is 6.71 μM dFMU/s; in experiment [2] (setting [4]) it was 0.011 mM/s.

The record behind these values is patent US6613512B1, “Apparatus and method for correcting for variable velocity in microfluidic systems” (Caliper Technologies Corp., priority 1997, dated 2003).
